In ChEMBL document CHEMBL1862790, “Optimisation of fenarimol series for the treatment of Chagas disease”:

How the values were obtained:
[1] = system: Trypanosoma cruzi; test: microbe, parasite or virus in culture; type: functional, organism-based, Tulahuen LacZ, Clone C4
[2] = DNDI: Cytotoxicity against L-6 rat myoblasts from skeletal muscle cells; conditions: L6 rat skeletal muscle myoblast cells
[3] = system: Trypanosoma cruzi; test: microbe, parasite or virus in culture; type: functional, Tulahuen LacZ, Clone C4
[4] = Trypanosoma cruzi, Tulahuen LacZ, Clone C4

Compound | IC50 [1, 4] [nM] | IC90 [3, 4] [nM] | IC50 [1] [nM] | IC90 [3] [nM] | IC50 ([2]; IC50) [nM] | IC50 [2] [nM]
O=C(Oc1ccccc1)N1CCC(NC(c2ccc(Cl)cc2)c2cccnc2)CC1 (stereo unspecified) | 20 | 44 |  |  |  | 60800
CS(=O)(=O)N1CCC(C(O)(c2ccc(Cl)cc2)c2cccnc2)CC1 (stereo unspecified) | 200 | 550 |  |  | > 100000 | 
OC(c1ccc(Cl)cc1)(c1ccc(C(F)(F)F)cc1)c1cc(-c2ccccc2)on1 (stereo unspecified) | > 1000 | > 1000 |  |  | 18700 | 
N#Cc1cccc(C(O)(c2ccc(Cl)cc2)c2cccnc2)c1 (stereo unspecified) | 110 | 510 |  |  | > 100000 | 
COC(=O)N(OC)c1ccccc1COc1ccn(-c2ccc(Cl)cc2)n1 [PYRACLOSTROBIN] | 6460 | > 10000 |  |  |  | 43400
CS(=O)(=O)N1CCN(C(c2ccc(C#N)cc2)c2cccnc2)CC1 (stereo unspecified) | 365 | 734 |  |  | > 100000 | 
O=C(C1CC1)N1CCN(C(c2cccnc2)c2ccc(Cl)cc2F)CC1 (stereo unspecified) | 26 | 82 |  |  | > 100000 | 
Cc1ccc(C(O)(c2ccc(Cl)cc2)c2cncnc2)cn1 (stereo unspecified) | 435 | > 1000 |  |  | > 100000 | 
Cc1ncsc1C(=O)N1CCN(C(c2cccnc2)c2ccc(Cl)cc2F)CC1 (stereo unspecified) | 36 | 244 |  |  | 92700 | 
CCCC=C(c1ccc(Cl)cc1)c1cccnc1 | 75 | 380 |  |  | 79400 | 
CCCCC(O)(c1ccc(Cl)cc1)c1cnccn1 (stereo unspecified) | 330 | 3000 |  |  | > 100000 | 
OC(c1ccc(C(F)(F)F)cc1)(c1cncnc1)c1ccccc1Cl (stereo unspecified) | 250 | 20000 |  |  | > 100000 | 

Continued, in another order:

IC50 [1, 4] [nM] | IC90 [3, 4] [nM] | IC50 [1] [nM] | IC90 [3] [nM] | Compound | IC50 ([2]; IC50) [nM] | IC50 [2] [nM]
230 | 600 |  |  | CC(C)(C)NC(=O)N1CCN(C(c2ccc(Cl)cc2)c2cncnc2)CC1 (stereo unspecified) | > 100000 | 
290 | 830 |  |  | O=C(c1ccc(C(F)(F)F)cc1)N1CCC(NC(c2cnccn2)c2ccc(F)cc2F)CC1 (stereo unspecified) | > 100000 | 
122 | 332 |  |  | CC(C)(C)OC(=O)N1CC(CNC(c2ccc(C(F)(F)F)cc2)c2cccnc2)C1 (stereo unspecified) | > 100000 | 
190 | 370 |  |  | O=C(Cc1ccccc1)NC1CCN(C(c2ccc(C(F)(F)F)cc2)c2cnccn2)CC1 (stereo unspecified) | > 100000 | 
36.5 | 92 |  |  | Nc1nc(N2CCN(C(c3cccnc3)c3ccc(C(F)(F)F)cc3F)CC2)no1 (stereo unspecified) | 57800 | 
76 | 260 |  |  | CC(C)(C)OC(=O)N1CCC(CNC(c2ccc(C(F)(F)F)cc2)c2cnccn2)CC1 (stereo unspecified) | 73300 | 
10 | 46 |  |  | CC(C)(C)OC(=O)NC1CCN(C(c2cccnc2)c2ccc(Cl)cc2F)CC1 (stereo unspecified) | 55100 | 
48 | 90 |  |  | N#Cc1ccccc1OC1CCN(C(c2ccc(C(F)(F)F)cc2)c2cccnc2)CC1 (stereo unspecified) | 57800 | 
420 | 920 |  |  | O=S(=O)(C1CCCCC1)N1CCC(NC(c2cnccn2)c2ccc(F)cc2F)CC1 (stereo unspecified) | > 100000 | 
> 1000 | > 1000 |  |  | CON=C(c1ccc(C(F)(F)F)cc1)c1cccnc1 | 70300 | 
270 | 660 |  |  | CC(C)CC(=O)N1CCC(NC(c2ccc(C(F)(F)F)cc2)c2cnccn2)CC1 (stereo unspecified) | > 100000 | 
> 1000 | > 1000 |  |  | CCN1CCC(NC(c2ccc(C(F)(F)F)cc2)c2cnccn2)CC1 (stereo unspecified) | > 100000 | 
> 1000 | > 1000 |  |  | CC(=O)NC1CCN(C(c2cnccn2)c2ccc(F)cc2F)CC1 (stereo unspecified) | > 100000 | 
58 | 130 | 46.5 | 97.5 | Cc1cc(C(=O)NC2CCN(C(c3ccc(C#N)cc3)c3cccnc3)CC2)n(C)n1 (stereo unspecified) | > 100000 | 
7 | 20.5 |  |  | N#Cc1ccccc1N1CCC(NC(c2ccc(C(F)(F)F)cc2)c2cccnc2)CC1 (stereo unspecified) | 52300 | 
> 1000 | > 1000 |  |  | O=C(Cc1ccccc1)NC(c1ccc(C(F)(F)F)cc1)c1cnccn1 (stereo unspecified) | > 100000 | 
